Read-outs that look alike come from different tables or passages of the source.
Tests used:
[1] = system: Arabidopsis thaliana Col-0; test: Germination rate and phytotoxicity; format: in vivo; conditions: for average fraction of germinated seeds: 5 DPS; for main root length / plant weight: 10 DPS
Protocol: Wild-type A. thaliana (Col-0 ecotype) seeds were sterilized with 70% EtOH with 0.1% Tween-20 solution (2 × 1 mL) for 10 min, rinsed with 96% EtOH (1 × 1 mL) for 10 min, and kept in the fridge (4 °C in the dark). Seeds were sown on a sterile 1/2 MS medium supplemented with 0.3% DMSO as a mock and test compounds at 5, 10, 50, and 100 μM concentrations in 0.3% DMSO. Plates were kept in long-day light conditions (22 °C/20 °C, 16 h light/8 h dark, 100 μmol m^–2 s^–1). After 5 days, the germination rate was evaluated. After an additional 5 days, primary root growth was measured with ImageJ software (https://imagej.nih.gov/ij/), and seedlings were weighted.

[2] = system: C. elegans ZZ15 lev-8(x15) X.; test: Chitinase assay (reproductive capacity); format: in vivo; conditions: Caenorhabditis elegans; levamisole-resistant strain
Protocol: (§1) C. elegans strains used in this study were N2 (wild-type), levamisole-resistant strains ZZ15 (lev-8(x15) X) and […] (lev-1(e211) IV), ivermectin-resistant strain DA1316 (avr-14(ad1305) I; avr-15(vu227) glc-1(pk54) V), mebendazole-resistant strain […] (ben-1(e1880) III), and three strains with mutations in succinate dehydrogenase, RP2699, RP2700, and RP2702. The worms were cultivated on Nematode Growth Medium agar plates seeded with Escherichia coli OP50 in 20 °C according to the standard cultivation protocols. Strains RP2699, RP2700, and RP2702 were generated by Prof. Peter Roy’s group. All other strains and bacteria were purchased from the Caenorhabditis Genetics Center (CGC, Minneapolis, MN).
(§2) The effect of compounds on C. elegans was evaluated using the Chitinase assay as we described previously.
(§3) Lastly, strain DA1316 has mutations in three genes encoding subunits of the glutamate-gated chloride channel and is highly resistant to avermectins.

[3] = system: C. elegans CB3474 ben-1(e1880) III.; test: Chitinase assay (reproductive capacity); format: in vivo; conditions: Caenorhabditis elegans; mebendazole-resistant strain
Protocol: as §1, §2, §3

[4] = system: C. elegans DA1316 avr-14(ad1305) I; avr-15(vu227) glc-1(pk54) V.; test: Chitinase assay (reproductive capacity); format: in vivo; conditions: Caenorhabditis elegans; ivermectin-resistant strain
Protocol: as §1, §2, §3

[5] = system: C. elegans CB211 lev-1(e211) IV.; test: Chitinase assay (reproductive capacity); format: in vivo; conditions: Caenorhabditis elegans; levamisole-resistant strain
Protocol: as §1, §2, §3

[6] = system: Skin fibroblasts (BJ); test: Resazurin assay, 3-day treatment; format: cell-based, human; conditions: BJ
Protocol: Skin fibroblasts (BJ) were obtained from the American Type Culture Collection (ATCC, Manassas, VA), while human keratinocytes (HaCaT) were sourced from the German Cancer Research Center in Heidelberg, Germany. Cells were cultured in a standard DMEM medium from Sigma-Aldrich, supplemented with 10% fetal bovine serum, 2 mM glutamine, 100 U/mL penicillin, and 100 μg/mL streptomycin. Cultures were maintained under standard conditions (37 °C, 5% CO2, humidified atmosphere) and subcultured two to three times per week. We assessed the effect of 3-day compound treatments on cell viability using a resazurin reduction assay measuring mitochondrial activity. Approximately 5,000 cells in 80 μL of culture medium were seeded into the wells of a 96-well plate. Twenty-four hours later, 20 μL of 5-fold concentrated test compound solutions was added and tested across three concentrations prepared through 2-fold serial dilutions. The highest final concentration was 40 μM. After 72 h, we added an 11-fold concentrated resazurin solution to the wells, achieving a final concentration of 0.0125 μM. Fluorescence (ex = 570 nm, em = 610 nm) was measured after 3 h of incubation. […]

[7] = system: Heterodera schachtii second-stage juveniles (J2); test: Motility on WMicrotracker ONE; format: in vivo
Protocol: H. schachtii was maintained on mustard (Sinapsis alba cv. Albatros) roots grown in vitro on modified KNOP medium according to the previously published protocols. ,
(§4) The effect of compounds on motility of H. contortus, D. destructor, and H. schachtii was evaluated using the WMicrotracker ONE platform according to previously published protocols. ,
(§5) The instrument evaluates the activity of small animals by counting how many times infrared light microbeams passing through the wells of a microtiter plate are interrupted. In age-unsynchronized populations of D. destructor, we observed reduced motility of worm populations treated with the halogenated derivatives i-19, i-20, and i-21 (Figures A, S2.1A, S2.2A and Table S2.1). […] The decreases in mean activity counts after 72 h of treatment at 100 μM were 85% and 97%, respectively.

[8] = system: age unsynchronized Ditylenchus destructor; test: Motility on WMicrotracker ONE; format: in vivo
Protocol: Populations of D. destructor, kindly provided by Central Institute for Supervising and Testing in Agriculture, the Ministry of Agriculture of the Czech Republic, were maintained according to the protocol previously described here.
as §4, §5

[9] = system: human keratinocytes (HaCaT); test: Resazurin assay, 3-day treatment; format: cell-based
Protocol: Skin fibroblasts (BJ) were obtained from the American Type Culture Collection (ATCC, Manassas, VA), while human keratinocytes (HaCaT) were sourced from the German Cancer Research Center in Heidelberg, Germany. Cells were cultured in a standard DMEM medium from Sigma-Aldrich, supplemented with 10% fetal bovine serum, 2 mM glutamine, 100 U/mL penicillin, and 100 μg/mL streptomycin. Cultures were maintained under standard conditions (37 °C, 5% CO2, humidified atmosphere) and subcultured two to three times per week. We assessed the effect of 3-day compound treatments on cell viability using a resazurin reduction assay measuring mitochondrial activity. Approximately 5,000 cells in 80 μL of culture medium were seeded into the wells of a 96-well plate. Twenty-four hours later, 20 μL of 5-fold concentrated test compound solutions was added and tested across three concentrations prepared through 2-fold serial dilutions. The highest final concentration was 40 μM. After 72 h, we added an 11-fold concentrated resazurin solution to the wells, achieving a final concentration of 0.0125 μM. Fluorescence (ex = 570 nm, em = 610 nm) was measured after 3 h of incubation.
The disubstituted derivatives i-25 and i-27 were the most toxic in the set, causing around a 50% decrease in viability of HaCaT cells at 40 μM.

[10] = system: C. elegans N2 wild-type; test: Chitinase assay (reproductive capacity); format: in vivo, Caenorhabditis elegans
Protocol: as §2
After exposing L1 larvae to the compounds for 4 days, we observed the populations under a microscope and measured the Chitinase activity. The larvae produce the enzyme while hatching, and its activity is indicative of the reproductive capacity of the worms. Populations that fail to reproduce due to acute or reproductive toxicity or developmental abnormalities are detected.

[11] = 10 µM group, initial (prior to the treatment)
[12] = 50 µM group, initial (prior to the treatment)
[13] = 100 µM group, initial (prior to the treatment)

CC(C)Oc1cccc(-c2ccc3[nH]ccc3c2)c1 [i-15]
average fraction of germinated seeds ([1]; 5 µM): 0.98
main root length ([1]; 5 µM): 36.67 mm
plant weight ([1]; 5 µM): 35.21 mg
average fraction of germinated seeds ([1]; 10 µM): 0.93
main root length ([1]; 10 µM): 36.13 mm
plant weight ([1]; 10 µM): 31.55 mg
average fraction of germinated seeds ([1]; 50 µM): 0.95
main root length ([1]; 50 µM): 35.01 mm
plant weight ([1]; 50 µM): 29.94 mg
IC50 [2]: 8.55 ± 1.04 µM
IC50 [3]: 10.2 ± 0.51 µM
IC50 [4]: 9.1 ± 2.21 µM
IC50 [5]: 8.86 ± 0.9 µM
Average viability (signal intensity relative to control) ([6]; 10 µM): 1 ± 0.03
Average viability (signal intensity relative to control) ([6]; 20 µM): 1.03 ± 0.04
Average viability (signal intensity relative to control) ([6]; 40 µM): 0.98 ± 0.05
average activity counts [7, 11]: 169
average activity counts ([7]; 10 µM, 48 h): 191
average activity counts ([7]; 10 µM, 72 h): 164
average activity counts [7, 12]: 188
average activity counts ([7]; 50 µM, 48 h): 193
average activity counts ([7]; 50 µM, 72 h): 144
average activity counts [7, 13]: 195
average activity counts ([7]; 100 µM, 48 h): 212
average activity counts ([7]; 100 µM, 72 h): 175
average activity counts [8, 11]: 224
average activity counts ([8]; 10 µM, 48 h): 201
average activity counts ([8]; 10 µM, 72 h): 224
average activity counts [8, 12]: 226
average activity counts ([8]; 50 µM, 48 h): 198
average activity counts ([8]; 50 µM, 72 h): 218
average activity counts [8, 13]: 217
average activity counts ([8]; 100 µM, 48 h): 199
average activity counts ([8]; 100 µM, 72 h): 206
Average viability (signal intensity relative to control) ([9]; 10 µM): 1.01 ± 0.04
Average viability (signal intensity relative to control) ([9]; 20 µM): 1.04 ± 0.05
Average viability (signal intensity relative to control) ([9]; 40 µM): 1.01 ± 0.05
IC50 [10]: 7.93 ± 0.66 µM
IC50 ([10]; Caenorhabditis elegans): < 10 µM

CCOc1cc(-c2ccc3[nH]ccc3c2)ccc1Cl [i-25]
average fraction of germinated seeds ([1]; 5 µM): 0.98
main root length ([1]; 5 µM): 38.29 mm
plant weight ([1]; 5 µM): 30.25 mg
average fraction of germinated seeds ([1]; 10 µM): 0.95
main root length ([1]; 10 µM): 38.15 mm
plant weight ([1]; 10 µM): 31.97 mg
average fraction of germinated seeds ([1]; 50 µM): 0.96
main root length ([1]; 50 µM): 34.25 mm
plant weight ([1]; 50 µM): 27.79 mg
IC50 [2]: 8.72 ± 0.13 µM
IC50 [3]: 7.79 ± 0.36 µM
IC50 [4]: 9.93 ± 0.68 µM
IC50 [5]: 9.36 ± 0.43 µM
Average viability (signal intensity relative to control) ([6]; 10 µM): 0.92 ± 0.01
Average viability (signal intensity relative to control) ([6]; 20 µM): 0.9 ± 0.05
Average viability (signal intensity relative to control) ([6]; 40 µM): 0.74 ± 0.06
average activity counts [7, 11]: 174
average activity counts ([7]; 10 µM, 48 h): 160
average activity counts ([7]; 10 µM, 72 h): 171
average activity counts [7, 12]: 178
average activity counts ([7]; 50 µM, 48 h): 184
average activity counts ([7]; 50 µM, 72 h): 170
average activity counts [7, 13]: 172
average activity counts ([7]; 100 µM, 48 h): 195
average activity counts ([7]; 100 µM, 72 h): 190
average activity counts [8, 11]: 234
average activity counts ([8]; 10 µM, 48 h): 221
average activity counts ([8]; 10 µM, 72 h): 194
average activity counts [8, 12]: 246
average activity counts ([8]; 50 µM, 48 h): 209
average activity counts ([8]; 50 µM, 72 h): 197
average activity counts [8, 13]: 230
average activity counts ([8]; 100 µM, 48 h): 210
average activity counts ([8]; 100 µM, 72 h): 203
Average viability (signal intensity relative to control) ([9]; 10 µM): 0.93 ± 0.02
Average viability (signal intensity relative to control) ([9]; 20 µM): 0.88 ± 0.06
Average viability (signal intensity relative to control) ([9]; 40 µM): 0.53 ± 0.1
decrease in viability ([9]; 40 µM): ~50%
IC50 ([10]; Caenorhabditis elegans): 9.74 ± 1.65 µM
